Where a SMILES comes first, the peptide text is derived from it.
What was measured:
Interleukin-23 receptor [1] = biological target: T1, Interleukin-23 receptor (Homo sapiens, UniProt Q5VWK5); assay: Inhibition of interleukin-23 receptor in human DB cells assessed as reduction in IL-23-stimulated STAT3 phosphorylation incubated for 30 mins by HTRF assay; type: cell-based
T1 sequence (Q5VWK5 whole entry): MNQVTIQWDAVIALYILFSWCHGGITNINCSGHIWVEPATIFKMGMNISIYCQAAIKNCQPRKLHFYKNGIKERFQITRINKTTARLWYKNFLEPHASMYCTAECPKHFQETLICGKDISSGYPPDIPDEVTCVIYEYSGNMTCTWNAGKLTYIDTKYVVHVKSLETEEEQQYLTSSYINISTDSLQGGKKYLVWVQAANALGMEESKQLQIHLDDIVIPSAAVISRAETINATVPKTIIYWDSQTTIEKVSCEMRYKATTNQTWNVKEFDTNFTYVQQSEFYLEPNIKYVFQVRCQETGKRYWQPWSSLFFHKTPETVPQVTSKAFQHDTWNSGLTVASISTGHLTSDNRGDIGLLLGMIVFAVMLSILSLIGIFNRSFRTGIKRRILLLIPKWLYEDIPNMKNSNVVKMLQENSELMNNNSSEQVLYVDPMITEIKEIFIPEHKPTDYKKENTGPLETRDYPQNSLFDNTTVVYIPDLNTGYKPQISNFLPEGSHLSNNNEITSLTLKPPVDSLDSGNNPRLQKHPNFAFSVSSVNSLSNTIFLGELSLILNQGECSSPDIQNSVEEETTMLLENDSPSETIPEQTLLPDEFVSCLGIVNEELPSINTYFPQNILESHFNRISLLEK

[2] = Inhibition of interleukin-23 binding to rat interleukin-23 receptor incubated for 2 hrs by competitive binding ELISA
Interleukin-23 receptor [3] = biological target: T1, Interleukin-23 receptor; assay: Inhibition of interleukin-23 binding to human interleukin-23 receptor incubated for 2 hrs by competitive binding ELISA

SMILES	IC50 (Interleukin-23 receptor [1]) [nM]	IC50 [2] [nM]	IC50 (Interleukin-23 receptor [3]) [nM]
CC(=O)N[C@H](C(=O)N[C@@H](CCCNC(=N)N)C(=O)N[C@H](C(=O)N[C@@H](Cc1c[nH]c2ccccc12)C(=O)N[C@@H](CCC(N)=O)C(=O)N[C@H](C(=O)N[C@@H](Cc1ccc(O)cc1)C(=O)N[C@@H](Cc1c[nH]c2ccccc12)C(=O)N[C@@H](CCCNC(=N)N)C(=O)N[C@@H](CCCCN)C(=O)N[C@@H](Cc1ccccc1)C(=O)NCC(=O)NCCOCC(=O)N[C@H](CCCCN)C(N)=O)C(C)(C)S)[C@@H](C)O)C(C)(C)S	25 to 100	100 to 1000	100 to 1000
COc1ccc(C[C@H](NC(=O)[C@@H](NC(=O)[C@H](CCC(N)=O)NC(=O)[C@H](Cc2c[nH]c3ccccc23)NC(=O)[C@@H](NC(=O)[C@H](CCC(N)=O)NC(=O)[C@@H](NC(=O)CCCC(=O)O)C(C)(C)S)[C@@H](C)O)C(C)(C)S)C(=O)N[C@@H](Cc2ccc3ccccc3c2)C(=O)N[C@@](C)(CCCCN)C(=O)N[C@@H](CCCCNC(C)=O)C(=O)N[C@@H](CC(N)=O)C(=O)NCC(N)=O)cc1	10 to 25	25 to 100	25 to 100
COc1ccc(C[C@H](NC(=O)[C@@H](NC(=O)[C@H](CCC(N)=O)NC(=O)[C@H](Cc2c[nH]c3ccccc23)NC(=O)[C@@H](NC(=O)[C@H](CCC(N)=O)NC(=O)[C@@H](NC(=O)CC(C)C)C(C)(C)S)[C@@H](C)O)C(C)(C)S)C(=O)N[C@@H](Cc2ccc3ccccc3c2)C(=O)N[C@@](C)(CCCCN)C(=O)N[C@@H](CCCCNC(C)=O)C(=O)N[C@@H](CC(N)=O)C(=O)NCC(N)=O)cc1	10 to 25	25 to 100	25 to 100
CC(=O)N[C@@H](CS)C(=O)N[C@@H](CCCNC(=N)N)C(=O)N[C@H](C(=O)N[C@@H](Cc1c[nH]c2ccccc12)C(=O)N[C@@H](CCC(N)=O)C(=O)N[C@@H](CS)C(=O)N[C@@H](Cc1ccc(O)cc1)C(=O)N[C@@H](Cc1c[nH]c2ccccc12)C(=O)N[C@@H](CCCNC(=N)N)C(=O)N[C@@H](CCC(=O)O)C(=O)N[C@@H](Cc1ccc(O)cc1)C(=O)NCC(=O)N[C@@H](C)C(=O)N[C@H](CCCCN)C(N)=O)[C@@H](C)O	8	80	–
CC(=O)N[C@@H](CS)C(=O)N[C@@H](CO)C(=O)N[C@H](C(=O)N[C@@H](Cc1c[nH]c2ccccc12)C(=O)N[C@@H](CCC(N)=O)C(=O)N[C@@H](CS)C(=O)N[C@@H](Cc1ccc(O)cc1)C(=O)N[C@@H](Cc1c[nH]c2ccccc12)C(=O)N[C@@H](CC(C)C)C(=O)N[C@@H](CCCCN)C(=O)N[C@@H](Cc1cnc[nH]1)C(=O)NCC(=O)NCC(=O)N[C@@H](CCC(=O)O)C(N)=O)[C@@H](C)O (Ac-CSTWQCYWLKHGGE-NH2)	2	24	–
CC(=O)N[C@@H](CS)C(=O)N[C@@H](CCCNC(N)=O)C(=O)N[C@H](C(=O)N[C@@H](Cc1c[nH]c2ccccc12)C(=O)N[C@@H](CCC(N)=O)C(=O)N[C@@H](CS)C(=O)N[C@@H](Cc1ccc(O)cc1)C(=O)N[C@@H](Cc1c[nH]c2ccccc12)C(=O)N[C@@H](CCCNC(=N)N)C(=O)N[C@H](C(=O)N[C@@H](Cc1ccccc1)C(=O)NCC(=O)NCCC(=O)N[C@H](CCCCN)C(N)=O)C(C)C)[C@@H](C)O	–	76	50
CC(=O)N[C@@H](CS)C(=O)N[C@@H](CCC(N)=O)C(=O)N[C@H](C(=O)N[C@@H](Cc1c[nH]c2ccccc12)C(=O)N[C@@H](CCC(N)=O)C(=O)N[C@@H](CS)C(=O)N[C@@H](Cc1ccc(O)cc1)C(=O)N[C@@H](Cc1c[nH]c2ccccc12)C(=O)N[C@@H](CCC(C)C)C(=O)N[C@@H](CCC(=O)O)C(=O)N[C@@H](CC(N)=O)C(=O)NCC(=O)NCC(N)=O)[C@@H](C)O	–	140	61 to 362
COc1ccc(C[C@H](NC(=O)[C@@H](NC(=O)[C@H](CCC(N)=O)NC(=O)[C@H](Cc2c[nH]c3ccccc23)NC(=O)[C@@H](NC(=O)[C@H](CCC(N)=O)NC(=O)[C@@H](NC(=O)Cc2ccc(F)cc2)C(C)(C)S)[C@@H](C)O)C(C)(C)S)C(=O)N[C@@H](Cc2ccc3ccccc3c2)C(=O)N[C@@](C)(CCCCN)C(=O)N[C@@H](CCCCNC(C)=O)C(=O)N[C@@H](CC(N)=O)C(=O)NCC(N)=O)cc1	< 10	100 to 1000	25 to 100
CC(=O)N[C@H](C(=O)N[C@@H](C)C(=O)N[C@@H](CC(=O)O)C(=O)N[C@@H](Cc1c[nH]c2ccccc12)C(=O)N[C@H](C(=O)N[C@@H](CS)C(=O)N[C@@H](Cc1ccc(O)cc1)C(=O)N[C@@H](Cc1c[nH]c2ccccc12)C(=O)N[C@@H](Cc1cnc[nH]1)C(=O)N[C@H](C(=O)N[C@@H](Cc1ccccc1)C(=O)NCC(=O)NCCOCC(=O)N[C@H](CCCCN)C(N)=O)[C@@H](C)O)C(C)C)C(C)(C)S	100 to 1000	1000 to 10000	100 to 1000
CC(=O)N[C@@H](CS)C(=O)N[C@@H](CC(N)=O)C(=O)N[C@H](C(=O)N[C@@H](Cc1c[nH]c2ccccc12)C(=O)N[C@@H](CCC(N)=O)C(=O)N[C@@H](CS)C(=O)N[C@@H](Cc1ccc(O)cc1)C(=O)N[C@@H](Cc1c[nH]c2ccccc12)C(=O)N[C@@H](CCCNC(=N)N)C(=O)N[C@H](C(=O)N[C@@H](Cc1ccccc1)C(=O)NCC(=O)NCCOCC(=O)N[C@H](CCCCN)C(N)=O)C(C)C)[C@@H](C)O	–	79	–
CC(=O)N[C@@H](CS)C(=O)N[C@@H](CCC(N)=O)C(=O)N[C@H](C(=O)N[C@@H](Cc1c[nH]c2ccccc12)C(=O)N[C@@H](CCC(N)=O)C(=O)N[C@@H](CS)C(=O)N[C@@H](Cc1ccc(O)cc1)C(=O)N[C@@H](Cc1c[nH]c2ccccc12)C(=O)N[C@@](C)(CC(C)C)C(=O)N[C@@H](CCC(=O)O)C(=O)N[C@@H](CC(N)=O)C(=O)NCC(N)=O)[C@@H](C)O	5	27	–
CC(=O)N[C@@H](CS)C(=O)N[C@@H](CCC(N)=O)C(=O)N[C@H](C(=O)N[C@@H](Cc1c[nH]c2ccccc12)C(=O)N[C@@H](CCC(N)=O)C(=O)N[C@@H](CS)C(=O)N[C@@H](Cc1ccc(O)cc1)C(=O)N[C@@H](Cc1c[nH]c2ccccc12)C(=O)NC(C)(C)C(=O)N[C@@H](CCC(=O)O)C(=O)N[C@@H](CC(N)=O)C(=O)NCC(N)=O)[C@@H](C)O	–	34	–
CC(=O)NCCCC[C@H](NC(=O)[C@H](CCC(C)C)NC(=O)[C@H](Cc1c[nH]c2ccccc12)NC(=O)[C@H](Cc1ccc(O)cc1)NC(=O)[C@H](CS)NC(=O)[C@H](CCC(N)=O)NC(=O)[C@H](Cc1c[nH]c2ccccc12)NC(=O)[C@@H](NC(=O)[C@H](CCC(N)=O)NC(=O)[C@H](CS)NC(C)=O)[C@@H](C)O)C(=O)N[C@@H](CC(N)=O)C(=O)NCC(N)=O	3	32	–
C[C@@H](O)[C@H](NC(=O)[C@H](CCC(N)=O)NC(=O)[C@@H](N)CS)C(=O)N[C@@H](Cc1c[nH]c2ccccc12)C(=O)N[C@@H](CCC(N)=O)C(=O)N[C@@H](CS)C(=O)N[C@@H](Cc1ccc(O)cc1)C(=O)N[C@@H](Cc1c[nH]c2ccccc12)C(=O)N[C@@H](CCCN)C(=O)N[C@@H](CN)C(=O)N[C@@H](Cc1ccccc1)C(=O)NCC(=O)NCCOCC(=O)N[C@H](CCCCN)C(N)=O	–	276	–
CC(=O)N[C@@H](CS)C(=O)N[C@@H](CCC(N)=O)C(=O)N[C@H](C(=O)N[C@@H](Cc1c[nH]c2ccccc12)C(=O)N[C@@H](CCC(N)=O)C(=O)N[C@@H](CS)C(=O)N[C@@H](Cc1cccc2ccccc12)C(=O)N[C@@H](Cc1ccc2ccccc2c1)C(=O)N[C@@H](CCC(C)C)C(=O)N[C@@H](CCC(=O)O)C(=O)N[C@@H](CC(N)=O)C(=O)NCC(N)=O)[C@@H](C)O	–	125	–
CC(=O)N[C@@H](CS)C(=O)N(C)[C@@H](CCC(N)=O)C(=O)N[C@H](C(=O)N[C@@H](Cc1c[nH]c2ccccc12)C(=O)N[C@@H](CCC(N)=O)C(=O)N[C@@H](CS)C(=O)N[C@@H](Cc1ccc(O)cc1)C(=O)N[C@@H](Cc1c[nH]c2ccccc12)C(=O)N[C@@H](CCCNC(=N)N)C(=O)N[C@H](C(=O)N[C@@H](Cc1ccccc1)C(=O)NCC(=O)NCCC(=O)N[C@H](CCCCN)C(N)=O)C(C)C)[C@@H](C)O	–	85	–
CC(=O)N[C@@H](CS)C(=O)N[C@@H](CO)C(=O)N[C@H](C(=O)N[C@@H](Cc1c[nH]c2ccccc12)C(=O)N[C@@H](CCC(N)=O)C(=O)N[C@@H](CS)C(=O)N[C@@H](Cc1ccc(O)cc1)C(=O)N[C@@H](Cc1c[nH]c2ccccc12)C(=O)N[C@@H](CO)C(=O)N[C@@H](CCCCN)C(=O)N[C@@H](CCC(N)=O)C(=O)N[C@@H](CO)C(=O)NCC(=O)NCC(=O)N[C@@H](CO)C(N)=O)[C@@H](C)O (Ac-CSTWQCYWSKQSGGS-NH2)	–	204	–
CC(=O)N[C@@H](CS)C(=O)N[C@@H](CCC(N)=O)C(=O)N[C@H](C(=O)N[C@@H](Cc1c[nH]c2ccccc12)C(=O)N[C@@H](CCC(N)=O)C(=O)N[C@@H](CS)C(=O)N[C@@H](Cc1ccc(O)cc1)C(=O)N[C@@H](Cc1c[nH]c2ccccc12)C(=O)N[C@@H](CCC(C)C)C(=O)N[C@@H](CCC(=O)O)C(=O)N[C@@H](CC(N)=O)C(=O)N[C@@H](Cc1ccccc1)C(N)=O)[C@@H](C)O	–	182	–
CC(=O)N[C@@H](CS)C(=O)N[C@@H](CCCNC(=N)N)C(=O)N[C@H](C(=O)N[C@@H](Cc1c[nH]c2ccccc12)C(=O)N[C@@H](CCC(N)=O)C(=O)N[C@@H](CS)C(=O)N[C@@H](Cc1ccc(O)cc1)C(=O)N[C@@H](Cc1c[nH]c2ccccc12)C(=O)N[C@@H](CO)C(=O)N[C@@H](CCC(=O)O)C(=O)N[C@@H](Cc1ccccc1)C(=O)NCC(=O)N[C@H](C(=O)NCC(=O)N[C@@H](CCC(=O)O)C(N)=O)[C@@H](C)O)[C@@H](C)O (Ac-CRTWQCYWSEFGTGE-NH2)	–	778	–
